In patent US4061637A, “Certain 4-aryl-5-(4-phenylpiperazino)alkyl-4-thiazolin-2-ones” (priority 1974, dated 1977):
Values after ≈ are worked out from the molar mass of the structure shown. Counter-ions that a name gives are not always drawn.

Assays:
[1] = Carrageen oedema in the conscious rat (anti-inflammatory activity); assay type: in vivo
Method: Anti-inflammatory activity was evaluated by the method of Winter and colleagues (Proc. Soc. Exp. Biol., 111, 544, 1962) by endoperitoneally injecting the product under examination one hour before inducing oedema by injecting 0.05 ml. of a 1% suspension of carrageen (intradermally into the plantar portion of a rear paw).
The difference between the volume of the paw determined plethysmographically one hour before and three hours after the carrageen gives a quantitative estimate of the activity of the product tested. Where possible, the ED30 was calculated.

[2] = Fibrillation induced by CaCl2 of the rat anaesthetised with urethane (anti-arrhythmic activity); assay type: in vivo; conditions: for selectivity ratio: in vivo, LD50 rat iv / ED50 CaCl2, read-out: I.T. (1), therapeutic index from the ratio LD50 rat iv/ED50; for ED50: rat anaesthetised with urethane, iv
Method: Fibrillation induced by CaCl2 of the rat anaesthetised with urethane (1 g/kg ip)
The method described by Malinow and colleagues (Rev. Argent. Cardiol., 19, 120, 1952) was followed, which consists of inducing cardiac fibrillation by administering intravenously 2 ml/kg of an 8% solution of CaCl2 in rats pretreated intravenously with scalar doses of anti-arrhythmics. The ED50 was calculated for each active drug.

[3] = Arrhythmias induced by electrical stimulation of the isolated rabbit atrium (anti-arrhythmic activity); conditions: TD / ED30, isolated rabbit atrium; read-out: I.T. (2), therapeutic index from the ratio TD/ED30
Method: (§1) The ED30 in the presence of scalar concentrations of anti-arrhythmic substances was measured.

[4] = tested on: isolated rabbit atrium; test: as above; conditions: for EC30: Oryctolagus cuniculus, read-out: anti-arrhythmic activity, Electrical stimulation in isolated rabbit atrium ED30
Method: as §1

[5] = tested on: nor-adrenalin; test: Antagonism towards a lethal dose of nor-adrenalin in the rat (α-adrenolytic activity); assay type: in vivo
Method: Antagonism towards a lethal dose of nor-adrenalin in the rat
The animals are treated with a dose of nor-adrenalin (0.5 mg/kg) which is 100% lethal in animals. The activity is calculated by the number of animals protected from death by prior administration of the drug under examination one hour before the agonist. Where possible the ED50 was calculated.

[6] = tested on: Rabbit platelet aggregation; test: Rabbit platelet aggregation in vitro; assay type: cell-based; conditions: Oryctolagus cuniculus, rabbit PRP, aggregation by sodium adenosine diphosphate, read-out: Platelet anti-aggregation activity, rabbit in vitro ED50
Method: Rabbit platelet aggregation in vitro The method of […] (Pharmacology, 7, 115, 1972) was followed. Blood taken from conscious rabbits is centrifuged in the presence of sodium citrate (3.8%) at 350 g. for 10 minutes, so as to separate the plasma rich in platelets (PRP) from the rest. The aggregation of the platelets is carried out by bringing the PRP into contact with adequate doses of sodium adenosine diphosphate in the presence of a possible inhibitor or its carrier. The measurement of aggregation is made continuously by a turbidimetric method.

[7] = Acute toxicity rat LD50 iv; conditions: in vivo
[8] = Acute toxicity under LD50 mouse; conditions: in vivo, ip
[9] = Inhibition of spontaneous motility in the mouse; assay type: in vivo; conditions: mouse; for ED50: po, 0.5 h, os, 30 minutes after treatment, read-out: Spontaneous motility inhibition mouse ED50
Method: This is evaluated by an actophotometric method, which consists of placing the mice, 30 minutes after oral treatment with the drug or the carrier, in a cage provided with a photoelectric cell counter and counting the number of times the photoelectric cell is passed during a 10 minute stay.

[10] = Ulcers by constriction (stress) in the rat; assay type: in vivo; conditions: 4 h, rat; for responders at 10 mg/kg / inhibition in vivo at 10 mg/kg: 10 mg/kg ip
Method: The method described by Rossi and colleagues (Compt. Rend. Soc. Biol., 150, 2124, 1956) was followed in which the formation of gastric ulcers is induced by immobilising the animal, in a state of fast for 48 hours, in a net for a period of 4 hours.
The protection given by treatment with the drug under examination before the beginning of the constriction period is evaluated by counting both the ulcers and the number of subjects without ulcers.

[11] = Antagonism towards electric shock convulsions in the mouse; assay type: in vivo; conditions: po, 0.5 h, mouse, 35 volt, read-out: Anti-convulsion activity, electric shock, mouse, % att.; for inhibition in vivo at 26 mg/kg: 26 mg/kg os
Method: This is evaluated by observing the protection given by pretreatment with the drug (30 minutes) against tonic convulsions obtained by applying a 35 volt current to the eyeballs.

[12] = Pinching the tail of the mouse (systemic analgesic activity); assay type: in vivo; conditions: po, 0.5 h, mouse, 30 minutes; for inhibition in vivo at 26 mg/kg: 26 mg/kg os
Method: To evaluate the analgesic activity, the method described by Bianchi and colleagues (Brit. J. Pharmacol., 9, 280, 1954) was followed which consists of applying an arterial pincer to the base of the tail in animals treated orally 30 minutes previously with the drug under examination, observing that the control animals react to the pain by squealing.

[13] = Cataleptic activity in the mouse; assay type: in vivo; conditions: po; mouse, os; read-out: Cataleptic activity mouse ED50
[14] = read-out: Anti-ulcer activity, ulcers by stress in the rat, Protected rats %
[15] = read-out: Anti-ulcer activity, ulcers by stress in the rat, Reduction in ulcers %

Q: With `COc1ccc(-c2[nH]c(=O)sc2CCN(C)CCc2ccccc2)cc1` [LR 620, 4-p-methoxyphenyl-5-β-(N-methylphenylethylamino)-ethyl-4-thiazolin-2-one maleate] as the compound, how does the ED30 ([1]; 1 h, ip, one hour before carrageen, read-out: Anti-inflammatory activity carrageenin oedema rat ED30) read?
A: 36 mg/kg

Q: What about the selectivity ratio [2] of the same compound?
A: 12

Q: And the ED50 [2]?
A: 2 mg/kg

Q: And the selectivity ratio [3]?
A: 30

Q: And the EC30 [4]?
A: 1 µg/mL

Q: What about the “TD (dose which abolishes the spontaneous contraction of the atrium)” value (from here on “TD”) ([4]; isolated rabbit atrium) of the same compound?
A: 30 µg/mL

Q: What about the ED50 ([5]; Rattus norvegicus, po, 1 h, read-out: α-adrenolytic activity lethal NA rat ED50) of the same compound?
A: 5 mg/kg

Q: What about the IC50 [6] of the same compound?
A: 650 µg/mL

Q: What about the LD50 [7] of the same compound?
A: 24 mg/kg

Q: What about the LD50 [8] of the same compound?
A: 100 mg/kg

Q: What about the “Spontaneous motility inhibition mouse, percentage activity (ED50 lacking)” value ([9]; 26 mg/kg os) of the same compound?
A: 0%

Q: And the responders at 10 mg/kg [10, 14]?
A: 0%

Q: And the inhibition in vivo at 10 mg/kg [10, 15]?
A: 0%

Q: And the inhibition in vivo at 26 mg/kg [11]?
A: 20%

Q: And the inhibition in vivo at 26 mg/kg [12]?
A: 0%

Q: For `CCN(CC)CCc1sc(=O)[nH]c1-c1ccc(F)cc1` [LR 602, 4-p-fluorophenyl-5-β-diethylaminoethyl-4-thiazolin-2-one], which selectivity ratio [2] is on record?
A: 24

Q: And the ED50 [2]?
A: 3.5 mg/kg

Q: What about the selectivity ratio [3] of the same compound?
A: 30

Q: And the EC30 [4]?
A: 10 µg/mL (≈ 34 µM)

Q: What about the “TD” value ([4]; rabbit) of the same compound?
A: 300 µg/mL

Q: And the “α-adrenolytic activity lethal NA rat, percentage activity (ED50 lacking)” value ([5]; 7 mg/kg os)?
A: 0%

Q: And the IC50 [6]?
A: 800 µg/mL (≈ 2720 µM)

Q: And the LD50 [7]?
A: 84 mg/kg

Q: What about the LD50 [8] of the same compound?
A: 125 mg/kg

Q: What about the ED50 [9] of the same compound?
A: 30 mg/kg

Q: What about the responders at 10 mg/kg [10, 14] of the same compound?
A: 50%

Q: What about the inhibition in vivo at 10 mg/kg [10, 15] of the same compound?
A: 65%

Q: What about the inhibition in vivo at 26 mg/kg [11] of the same compound?
A: 0%

Q: What about the inhibition in vivo at 26 mg/kg [12] of the same compound?
A: 30%

Q: What does the source list for `Cl.O=c1[nH]c(-c2ccc(F)cc2)c(CCN2CCOCC2)s1` [LR 618, 4-p-fluorophenyl-5-β-morpholinoethyl-4-thiazolin-2-one hydrochloride]?
A: Anti-inflammatory activity carrageenin oedema rat, percentage activity (ED30 lacking) ([1]; 60 mg/kg ip): 9.8%; selectivity ratio [2]: 9; ED50 [2]: 15 mg/kg; selectivity ratio [3]: 8.5; EC30 [4]: 35.4 µg/mL; TD (dose which abolishes the spontaneous contraction of the atrium) ([4]; rabbit): 300 µg/mL; ED50 [13]: 60 mg/kg; α-adrenolytic activity lethal NA rat, percentage activity (ED50 lacking) ([5]; 15 mg/kg os): 0%; IC50 [6]: 650 µg/mL; LD50 [7]: 130 mg/kg; LD50 [8]: 250 mg/kg; ED50 [9]: 60 mg/kg; responders at 30 mg/kg ([10]; 30 mg/kg ip, read-out: Anti-ulcer activity, ulcers by stress in the rat, Protected rats %): 50%; inhibition in vivo at 30 mg/kg ([10]; 30 mg/kg ip, read-out: Anti-ulcer activity, ulcers by stress in the rat, Reduction in ulcers %): 71%; inhibition in vivo at 60 mg/kg ([11]; 60 mg/kg os): 10%; inhibition in vivo at 60 mg/kg ([12]; 60 mg/kg os, read-out: Systemic analgesic activity, tail pinching in mouse, %): 40%

Q: For `Cl.O=c1[nH]c(-c2ccc(F)cc2)c(CCN2CCCCC2)s1` [LR 617, 4-p-fluorophenyl-5-β-piperidinoethyl-4-thiazolin-2-one hydrochloride], which selectivity ratio [2] is on record?
A: 15

Q: And the ED50 [2]?
A: 4 mg/kg

Q: What about the selectivity ratio [3] of the same compound?
A: 69

Q: What about the EC30 [4] of the same compound?
A: 4.3 µg/mL

Q: And the “TD” value ([4]; rabbit)?
A: 300 µg/mL

Q: And the “α-adrenolytic activity lethal NA rat, percentage activity (ED50 lacking)” value ([5]; 5 mg/kg os)?
A: 0%

Q: What about the IC50 [6] of the same compound?
A: 800 µg/mL

Q: And the LD50 [7]?
A: 62 mg/kg

Q: And the LD50 [8]?
A: 100 mg/kg

Q: What about the ED50 [9] of the same compound?
A: 19.6 mg/kg

Q: What about the responders at 10 mg/kg [10, 14] of the same compound?
A: 10%

Q: What about the inhibition in vivo at 10 mg/kg [10, 15] of the same compound?
A: 17%
